Measured values from US10155751B2, “Pyrazolyl-substituted heteroaryls and their use as medicaments” (Boehringer Ingelheim International GmbH, priority 2015, dated 2018).

Experiments:
[1] = molecular target: Recombinant human Aurora B (amino acids 1-344) (Homo sapiens (Human), UniProt Q96GD4); experiment: Aurora B kinase test (ADP Glo); type: biochemical; settings: for IC50: read-out: AURB inhibition IC50-value (chapter 5.3)
Experimental: The activity of the Aurora B kinase protein was determined using the ADP Glo® Luminescence Kinase test (Promega; V9103X). In this homogeneous test the amount of ADP remaining after the kinase reaction is quantified by a luciferin-luciferase reaction using luminescence. The luminescence signal obtained correlates with the amount of ADP still present and thus correlates with the activity of the protein kinase.
The test compounds were dissolved in 100% DMSO at a concentration of 10 mM and diluted in DMSO to a concentration of 5 mM. Serial Dilution is done in 1:10 steps in 100% DMSO. All further dilutions of the substances were carried out with test buffer (50 mM Hepes, pH 7.5, 10 mM MgCl2, 1 mM EGTA, 60 μM Ultra Pure ATP, 0.01% Brij35, 0.1% BSA, 5 mM 8-Glycerophosphate) until a concentration was reached which was 2.5 times above the final test concentration (final concentration of the compounds: 50 μM to 0.005 nM). 4 μl aliquots of these dilutions were transferred into a 384-well Optiplate (Perkin Elmer, #6007290). His-Aurora B was diluted to 125 nM in the test buffer and 4 μl of this dilution were used in the kinase test (final concentration of Aurora B=50 nM in a total volume of 10 μl). After 15 minutes incubation at room temperature 2 μl of 250 μM substrate ([[…]]; University of Dundee) in test buffer were added to each well and the incubation was continued for a further 60 minutes at room temperature.
Positive controls are the reaction mixtures that contain no test substance; negative controls (blanks) are reaction mixtures that contain no kinase.
After 60 minutes, 10 μl ADP-Glo® solution (ADP-Glo Reagent #V912B Promega) (heated to room temperature) were added to each well and incubation was continued for a further 40. minutes. Then 20 μl Kinase detection mix (Detection Buffer #V913B Promega; Kinase Detection Substrate #V914B Promega) were added and incubated for 40 minutes at room temperature. The plates were read in Envision Luminescence Reader (Perkin-Elmer).
The output file of the reader is a csv file that contains the well number and measured RLU. For data evaluation and calculation, the measurement of the negative control was set as 0% ctrl and the measurement of the positive control was set as 100% ctrl. Based on this values the % value for the measurement of each substance concentration can be calculated using an Assay Explorer software (e.g. Accelrys). Normally, the % ctrl values calculated are between 0% and 100% values but may also occur outside these limits in individual cases based on variability or compound characteristics. The IC50-values were calculated from the % ctrl values using Assay Explorer software. Calculation: [y=(a−d)/(1+(x/c)^b)+d], a=low value, d=high value; x=conc M; c=IC50 M; b=hill; y=% ctrl.

[2] = tested on: human hepatocytes; experiment: Human hepatocyte stability test; type: in vitro ADME; settings: human hepatocyte suspension, percent of hepatic blood flow
Experimental: A more comprehensive way to measure the metabolic stability of a compound of the instant invention than microsomal stability (section 5.6) is the human hepatocyte stability test as described below. Herein the metabolic degradation for the compound in question is performed in a human hepatocyte suspension.
Human hepatocytes (typically cryopreserved) are incubated in an appropriate buffer system (e.g. Dulbecco's modified eagle medium plus 3.5 μg glucagon/500 mL, 2.5 mg insulin/500 mL and 3.75 mg/500 mL hydrocortison) containing 5% species serum.
Following a (typically) 30 min preincubation in an incubator (37° C., 10% CO2) 5 μl of the solution of the compound to be tested ([…]; from 2 mM in DMSO stock solution diluted 1:25 with medium) are added into 395 μl hepatocyte suspension (cell density is in the range of 0.25-5 Mio cells/mL, typically 1 Mio cells/mL; the final concentration of the compound in question is […], the final DMSO concentration is 0.05%).
The cells are incubated for six hours (incubator, orbital shaker) and samples (25 μl) are taken at 0, 0.5, 1, 2, 4 and 6 hours. Samples are transferred into acetonitrile and pelleted by centrifugation (5 min). The supernatant is transferred to a new 96-deepwell plate, evaporated under nitrogen and resuspended.
The decline of the compound to be tested is analyzed by HPLC-MS/MS.
CLint is calculated as follows CL_INTRINSIC=Dose/AUC=(C0/CD)/(AUD+clast/k)×1000/60.
C0: initial concentration in the incubation [μM], CD: cell density of vital cells [10^6 cells/mL], AUD: area under the data [μM×h], clast: concentration of last data point [μM], k: slope of the regression line for the compound in question decline [h−1].
The calculated in vitro hepatic intrinsic clearance can be scaled up to the intrinsic in vivo hepatic Clearance and used to predict hepatic in vivo blood clearance (CL) by the use of a liver model (well stirred model). CL_INTRINSIC_INVIVO [ml/min/kg]=(CL_INTRINSIC [μL/min/10^6cells]×hepatocellularity[10^6 cells/g liver]×liver factor [g/kg bodyweight])/1000 CL [ml/min/kg]=CL_INTRINSIC_INVIVO [ml/min/kg]×hepatic blood flow [ml/min/kg]/(CL_INTRINSIC_INVIVO [ml/min/kg]+hepatic blood flow [ml/min/kg]) Qh[%]=CL [ml/min/kg]/hepatic blood flow [ml/min/kg]) […]
Hepatocellularity, human: 120×10^6 cells/g liver
Liver factor, human: 25.7 g/kg bodyweight
Blood flow, human: 21 ml/(min×kg)
A satisfying human hepatocyte stability for a compound in question measured by this assay is represented by a Qh<20% (whereby the stability is better, the lower the Qh-value is).

Recombinant human Aurora B (amino acids 1-344), sequence (Q96GD4 whole entry, the tested form may be a part): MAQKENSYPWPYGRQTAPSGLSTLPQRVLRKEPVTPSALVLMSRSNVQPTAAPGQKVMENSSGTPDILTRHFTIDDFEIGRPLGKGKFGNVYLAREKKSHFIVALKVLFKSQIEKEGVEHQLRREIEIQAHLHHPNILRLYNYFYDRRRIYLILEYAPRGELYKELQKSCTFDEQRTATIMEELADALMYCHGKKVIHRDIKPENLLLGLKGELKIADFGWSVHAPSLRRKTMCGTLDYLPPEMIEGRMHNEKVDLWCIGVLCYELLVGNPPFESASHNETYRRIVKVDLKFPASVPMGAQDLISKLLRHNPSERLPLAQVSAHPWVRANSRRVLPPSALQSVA

| SMILES | selectivity ratio IC50(AURB)/IC50(SYK) [1] | IC50 [1] [µM] | stability in human hepatocytes (chapter 5.7) HEPhu [2] [% Qh] |
| --- | --- | --- | --- |
| C[C@@H](Oc1cc(-c2cnn(C3CCC3)c2)cc2nn(C)c(F)c12)[C@H]1CNC(=O)C1 [Example 1, (R)-4-{(R)-1-[6-(1-Cyclobutyl-1H-pyrazol-4-yl)-3-fluoro-2-methyl-2H-indazol-4-yloxy]-ethyl}-pyrrolidin-2-one] | 34800 | 34.8 | 10 |
| CC(C)n1cc(-c2cc(O[C@H](C)[C@H]3CNC(=O)C3)c3c(F)n(C)nc3c2)cn1 [Example 2, (R)-4-{(R)-1-[3-Fluoro-6-(1-isopropyl-1H-pyrazol-4-yl)-2-methyl-2H-indazol-4-yloxy]-ethyl}-pyrrolidin-2-one] | 23955 | 31.1 | <4 |
| C[C@@H](Oc1cc(-c2cnn(CCC(F)(F)F)c2)cc2nn(C)c(F)c12)[C@H]1CNC(=O)C1 [Example 12, (R)-4-((R)-1-{3-Fluoro-2-methyl-6-[1-(3,3,3-trifluoro-propyl)-1H-pyrazol-4-yl]-2H-indazol-4-yloxy}-ethyl)-pyrrolidin-2-one] | 10207 | 29.6 | <4 |
| Cc1c2c(O[C@H](C)[C@H]3CNC(=O)C3)cc(-c3cnn(C(C)(C)C#N)c3)cc2nn1C [Example 17, 2-(4-{2,3-Dimethyl-4-[(R)-1-((R)-5-oxo-pyrrolidin-3-yl)-ethoxy]-2H-indazol-6-yl}-pyrazol-1-yl)-2-methyl-propionitrile] | 17241 | 50 | 4 |
| Cc1c2c(O[C@H](C)[C@H]3CNC(=O)C3)cc(-c3cnn(CC(C)C)c3)cc2nn1C [Example 19, (R)-4-{(R)-1-[6-(1-Isobutyl-1H-pyrazol-4-yl)-2,3-dimethyl-2H-indazol-4-yloxy]-ethyl}-pyrrolidin-2-one] | 13212 | 23.8 | 7 |
| Cc1c2c(O[C@H](C)[C@H]3CNC(=O)O3)nc(-c3cnn(C(C)(C)C)c3)cc2nn1C [Example 3, (R)-5-{(R)-1-[6-(1-tert-Butyl-1H-pyrazol-4-yl)-2,3-dimethyl-2H-pyrazolo[4,3-c]pyridin-4-yloxy]-ethyl}-oxazolidin-2-one] | 15731 | 31.5 | 7 |
| Cc1c2c(O[C@H](C)[C@H]3CNC(=O)C3)cc(-c3cnn(CCF)c3)cc2nn1C [Example 11, (R)-4-((R)-1-{6-[1-(2-Fluoro-ethyl)-1H-pyrazol-4-yl]-2,3-dimethyl-2H-indazol-4-yloxy}-ethyl)-pyrrolidin-2-one] | 20800 | 31.2 | 4 |
| C[C@@H](Oc1cc(-c2cnn(CC3CC3)c2)cc2nn(C)c(F)c12)[C@H]1CNC(=O)C1 [Example 6, (R)-4-{(R)-1-[6-(1-Cycloprop-ylmethyl-1H-pyrazol-4-yl)-3-fluoro-2-methyl-2H-indazol-4-yloxy]-ethyl}-pyrrolidin-2-one] | 13115 | 34.1 | 6 |
| Cc1c2c(O[C@H](C)[C@H]3CNC(=O)C3)cc(-c3cnn(C4CC4)c3)cc2nn1C [Example 20, (R)-4-{(R)-1-[6-(1-Cyclopropyl-1H-pyrazol-4-yl)-2,3-dimethyl-2H-indazol-4-yloxy]-ethyl}-pyrrolidin-2-one] | 13932 | 34.8 | <4 |
